Legend:
[1] = target: T1, mouse EP3α (Mus musculus, UniProt P30557); assay: Binding assay using expression cell of prostanoids receptor subtype, EP3α ([3H]-PGE2 binding inhibition, CHO membrane fraction); details: 2.5 nM [3H]-PGE2, 1 hour at room temperature, pH 6.0, read-out: Dissociation Constant Ki, EP3α
T1 construct: expressed in transfected cells; host or cells: CHO cells
T1 sequence (P30557 1-365): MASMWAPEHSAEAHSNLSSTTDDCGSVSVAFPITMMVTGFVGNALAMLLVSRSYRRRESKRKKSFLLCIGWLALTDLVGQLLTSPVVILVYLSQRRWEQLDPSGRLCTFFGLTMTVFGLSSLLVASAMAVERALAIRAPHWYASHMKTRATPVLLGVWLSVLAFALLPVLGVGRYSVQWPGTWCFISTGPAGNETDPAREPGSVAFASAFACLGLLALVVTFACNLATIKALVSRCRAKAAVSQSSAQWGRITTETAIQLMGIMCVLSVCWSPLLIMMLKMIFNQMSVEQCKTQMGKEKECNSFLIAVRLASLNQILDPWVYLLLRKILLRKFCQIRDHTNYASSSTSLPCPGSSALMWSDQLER
Description: (§1) (i) Binding assay using expression cell of prostanoids receptor subtype
(§2) The preparation of membrane fraction was carried out according to the method of Sugimoto et al. [J. Biol. Chem., 267, 6463-6466 (1992)], using expression CHO cell of the prostanoids receptor subtype (mouse EP1, EP2, EP3α, EP4).
(§3) The standard assay mixture containing membrane fraction (0.5 mg/ml), and [3H]-PGE2 in a final volume of 200 μl was incubated for 1 hour at room temperature. The reaction was terminated by addition of 3 ml of ice-cooled buffer. The mixture was filtered through a GF/B glass filter under reduced pressure. The radioactivity associated with the filter was measured by liquid scintillation counting.
(§4) Kd and Bmax values were determined from Scatchard plots [Ann. N.Y. Acad. Sci., 51, 660 (1949)]. Non-specific binding was calculated as the binding in the presence of an excess (2.5 μM) of unlabeled PGE2. In the measurement of 3H-PGE2 binding inhibitory activity, 2.5 nM of [3H]-PGE2 and various concentrations of the compounds of the present invention were added. The following buffer was used in all reactions.
(§5) Buffer; 10 mM potassium phosphate (pH 6.0), 1 mM EDTA, 10 mM MgCl2, 0.1 M NaCl.
(§6) The dissociation constant Ki (μM) of each compound was calculated by the following equation.

[2] = target: T2, mouse EP2 (Mus musculus, UniProt Q62053); assay: Binding assay using expression cell of prostanoids receptor subtype, EP2 ([3H]-PGE2 binding inhibition, CHO membrane fraction); details: 2.5 nM [3H]-PGE2, 1 hour at room temperature, pH 6.0, read-out: Dissociation Constant Ki, EP2
T2 construct: expressed in transfected cells; host or cells: CHO cells
T2 sequence (Q62053 whole entry): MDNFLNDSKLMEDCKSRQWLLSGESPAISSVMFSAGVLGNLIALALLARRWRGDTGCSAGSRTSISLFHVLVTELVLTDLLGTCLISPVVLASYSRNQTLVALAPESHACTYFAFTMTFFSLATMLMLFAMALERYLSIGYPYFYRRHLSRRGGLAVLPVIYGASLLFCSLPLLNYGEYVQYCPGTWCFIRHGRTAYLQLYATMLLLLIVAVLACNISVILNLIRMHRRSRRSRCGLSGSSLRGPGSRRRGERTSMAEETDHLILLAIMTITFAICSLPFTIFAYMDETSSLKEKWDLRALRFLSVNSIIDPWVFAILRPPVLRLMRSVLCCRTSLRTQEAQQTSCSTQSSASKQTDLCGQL
Description: as §1, §2, §3, §4, §5, §6

[3] = target: T3, mouse EP4 (Mus musculus, UniProt P32240); assay: Binding assay using expression cell of prostanoids receptor subtype, EP4 ([3H]-PGE2 binding inhibition, CHO membrane fraction); details: 2.5 nM [3H]-PGE2, 1 hour at room temperature, pH 6.0, read-out: Dissociation Constant Ki, EP4
T3 construct: expressed in transfected cells; host or cells: CHO cells
T3 sequence (P32240 whole entry): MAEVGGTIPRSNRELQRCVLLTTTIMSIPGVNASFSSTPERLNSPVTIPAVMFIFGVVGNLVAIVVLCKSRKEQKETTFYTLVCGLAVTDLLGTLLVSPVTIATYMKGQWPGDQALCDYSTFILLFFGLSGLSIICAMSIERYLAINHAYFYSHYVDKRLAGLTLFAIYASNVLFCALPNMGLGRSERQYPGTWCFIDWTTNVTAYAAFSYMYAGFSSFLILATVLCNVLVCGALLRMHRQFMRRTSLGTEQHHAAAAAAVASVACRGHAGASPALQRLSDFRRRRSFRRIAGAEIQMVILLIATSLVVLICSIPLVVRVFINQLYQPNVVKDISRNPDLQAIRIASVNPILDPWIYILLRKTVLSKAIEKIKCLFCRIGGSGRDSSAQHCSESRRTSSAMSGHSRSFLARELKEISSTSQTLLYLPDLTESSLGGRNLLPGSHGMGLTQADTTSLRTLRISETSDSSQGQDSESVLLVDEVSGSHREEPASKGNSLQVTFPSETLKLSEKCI
Description: as §1, §2, §3, §4, §5, §6

[4] = target: T4, mouse EP1 (Mus musculus, UniProt P35375); assay: Binding assay using expression cell of prostanoids receptor subtype, EP1 ([3H]-PGE2 binding inhibition, CHO membrane fraction); details: 2.5 nM [3H]-PGE2, 1 hour at room temperature, pH 6.0, read-out: Dissociation Constant Ki, EP1
T4 construct: expressed in transfected cells; host or cells: CHO cells
T4 sequence (P35375 1-405): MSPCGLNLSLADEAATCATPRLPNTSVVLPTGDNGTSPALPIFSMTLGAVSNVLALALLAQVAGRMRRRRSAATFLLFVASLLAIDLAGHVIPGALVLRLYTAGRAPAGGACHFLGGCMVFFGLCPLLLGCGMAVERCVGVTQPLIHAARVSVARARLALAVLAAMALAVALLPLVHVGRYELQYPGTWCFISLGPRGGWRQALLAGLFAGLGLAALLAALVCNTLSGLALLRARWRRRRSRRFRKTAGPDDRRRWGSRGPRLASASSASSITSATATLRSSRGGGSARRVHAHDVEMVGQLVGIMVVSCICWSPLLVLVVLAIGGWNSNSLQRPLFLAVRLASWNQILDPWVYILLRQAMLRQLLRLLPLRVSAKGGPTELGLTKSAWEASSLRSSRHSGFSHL
Description: as §1, §2, §3, §4, §5, §6

| Ki [1] | Ki [2] | Ki [3] | Ki [4] | Compound |
| --- | --- | --- | --- | --- |
| 6.1 nM | 1300 nM | 3700 nM | 2400 nM | CCCCCC[C@@H](/C=C/[C@H]1[C@H](OC)CC(=O)[C@@H]1C/C=C\CCCC(=O)O)OC [1(e), 11α,15α-Dimethoxy-9-oxo-20-methylprosta-5Z,13E-dienoic acid] |
| 40 nM | 600 nM | 5900 nM | > 10000 nM | CCCCC[C@@H](/C=C/[C@H]1[C@H](OCC)CC(=O)[C@@H]1C/C=C\CCCC(=O)O)OCC [Example 2, 11α,15α-Diethoxy-9-oxoprosta-5Z,13E -dienoic acid] |
| 3.6 nM | 2400 nM | 4200 nM | > 10000 nM | CCCCC[C@@H](/C=C/[C@H]1[C@H](OC)CC(=O)[C@@H]1C/C=C\CCCC(=O)O)OC [Example 1, 11α,15α-Dimethoxy-9-oxoprosta-5Z,13E-dienoic acid] |

More lines, now with the values behind:

| Compound | Ki [1] | Ki [2] | Ki [3] | Ki [4] |
| --- | --- | --- | --- | --- |
| CCCCC[C@@H](/C=C/[C@H]1[C@H](OC)CC(=O)[C@@H]1CCCCCCC(=O)O)OC [1(a), 11α,15α-Dimethoxy-9-oxoprosta-13E-enoic acid] | 6.3 nM | 1100 nM | 1300 nM | > 10000 nM |
| CCCCC[C@@H](/C=C/[C@@H]1[C@@H](C/C=C\CCCC(=O)O)[C@H](Cl)C[C@H]1OC)OC [1(h), 11α,15α-Dimethoxy-9β-chloroprosta-5Z,13E-dienoic acid] | 1.7 nM | 34 nM | 73 nM | 39 nM |
| CCCCC(C)(C)[C@@H](/C=C/[C@H]1[C@H](OC)CC(=O)[C@@H]1C/C=C\CCCC(=O)O)OC [1(b), 11α,15α-Dimethoxy-9-oxo-16,16-dimethylprosta-5Z,13E-dienoic acid] | 2.7 nM | 530 nM | 2500 nM | 970 nM |
| COC(/C=C/[C@H]1[C@H](OC)CC(=O)[C@@H]1C/C=C\CCCC(=O)O)COc1ccccc1 (stereo partly drawn) [1(f), 11α,15α-Dimethoxy-9-oxo-16-phenoxy-17,18,19,20-tetranorprosta-5Z,13E-dienoic acid] | 2.9 nM | > 10000 nM | > 10000 nM | 310 nM |

Source: patent US6288119A, “11,15-O-dialkylprostaglandin E derivatives, process for producing the same, and drugs containing the same as the active ingredient” (Ono Pharmaceuticals Co., Ltd., priority 1997, dated 2001)
